Experimental data from patent publication US20050209278A1, “Piperidinyl- and piperazinyl-sulfonylmethyl hydroxamic acids and their use as protease inhibitors” (priority 2002, published 2005).
Like-named read-outs stand apart in the source and are kept apart here.

Assays:
Format in all cases: biochemical
MMP-1 = target: T1, MMP-1 (Homo sapiens, UniProt P03956); test: MMP-1 inhibition (in vitro Ki)
T1 construct: made in house; host or cells: MMP-1-transfected HT-1080 cells (spent media)
T1 sequence (P03956 100-469): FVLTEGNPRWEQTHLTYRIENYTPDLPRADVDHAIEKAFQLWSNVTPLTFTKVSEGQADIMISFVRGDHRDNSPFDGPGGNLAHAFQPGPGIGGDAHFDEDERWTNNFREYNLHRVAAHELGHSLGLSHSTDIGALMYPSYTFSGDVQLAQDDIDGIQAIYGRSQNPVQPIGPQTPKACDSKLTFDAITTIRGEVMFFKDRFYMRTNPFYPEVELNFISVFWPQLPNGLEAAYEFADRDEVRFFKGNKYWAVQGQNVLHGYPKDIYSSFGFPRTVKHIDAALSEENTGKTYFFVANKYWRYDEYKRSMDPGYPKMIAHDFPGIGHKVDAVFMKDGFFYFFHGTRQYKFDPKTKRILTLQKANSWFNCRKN

MMP-13 = target: T2, MMP-13 (Homo sapiens, UniProt P45452); test: MMP-13 inhibition (in vitro Ki)
T2 construct: made in house; host or cells: baculovirus / insect cells

MMP-9 = target: T3, MMP-9 (Homo sapiens, UniProt P14780); test: MMP-9 inhibition (in vitro Ki)
T3 construct: made in house; host or cells: MMP-9-transfected HT1080 cells (spent media)

MMP-14 = target: T4, MMP-14 (Homo sapiens, UniProt P50281); test: MMP-14 inhibition (in vitro Ki)
T4 construct: The catalytic domain enzyme was expressed in E. coli inclusion bodies, solubilized in urea; made in house

MMP-2 = target: T5, MMP-2 (Homo sapiens, UniProt P08253); test: MMP-2 inhibition (in vitro Ki)
T5 construct: made in house; host or cells: MMP-2-transfected p2AHT2 cells
T5 sequence (P08253 110-660): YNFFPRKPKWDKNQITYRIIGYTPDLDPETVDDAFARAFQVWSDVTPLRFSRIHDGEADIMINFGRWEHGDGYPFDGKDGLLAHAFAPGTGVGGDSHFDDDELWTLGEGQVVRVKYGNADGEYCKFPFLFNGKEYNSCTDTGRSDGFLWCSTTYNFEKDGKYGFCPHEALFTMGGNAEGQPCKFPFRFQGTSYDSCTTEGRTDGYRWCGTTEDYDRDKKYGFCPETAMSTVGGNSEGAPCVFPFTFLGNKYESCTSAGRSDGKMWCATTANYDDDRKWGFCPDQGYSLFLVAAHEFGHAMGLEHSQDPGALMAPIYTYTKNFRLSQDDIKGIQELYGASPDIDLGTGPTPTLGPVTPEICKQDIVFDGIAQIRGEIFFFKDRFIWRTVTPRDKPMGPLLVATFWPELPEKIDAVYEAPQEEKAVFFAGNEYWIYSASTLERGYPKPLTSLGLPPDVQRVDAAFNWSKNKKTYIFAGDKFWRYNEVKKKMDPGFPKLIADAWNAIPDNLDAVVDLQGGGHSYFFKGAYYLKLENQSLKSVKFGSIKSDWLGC

[1] = Table 9, read-out: MMP-1 Ki (IC-50)
[2] = Table 9, read-out: MMP-13 Ki (IC-50)
[3] = Table 9, read-out: MMP-9 Ki (IC-50)
[4] = Table 9, read-out: MMP-14 Ki (IC-50)
[5] = Table 9, read-out: MMP-2 Ki (IC-50)

T3 sequence (P14780 107-707 limits assumed): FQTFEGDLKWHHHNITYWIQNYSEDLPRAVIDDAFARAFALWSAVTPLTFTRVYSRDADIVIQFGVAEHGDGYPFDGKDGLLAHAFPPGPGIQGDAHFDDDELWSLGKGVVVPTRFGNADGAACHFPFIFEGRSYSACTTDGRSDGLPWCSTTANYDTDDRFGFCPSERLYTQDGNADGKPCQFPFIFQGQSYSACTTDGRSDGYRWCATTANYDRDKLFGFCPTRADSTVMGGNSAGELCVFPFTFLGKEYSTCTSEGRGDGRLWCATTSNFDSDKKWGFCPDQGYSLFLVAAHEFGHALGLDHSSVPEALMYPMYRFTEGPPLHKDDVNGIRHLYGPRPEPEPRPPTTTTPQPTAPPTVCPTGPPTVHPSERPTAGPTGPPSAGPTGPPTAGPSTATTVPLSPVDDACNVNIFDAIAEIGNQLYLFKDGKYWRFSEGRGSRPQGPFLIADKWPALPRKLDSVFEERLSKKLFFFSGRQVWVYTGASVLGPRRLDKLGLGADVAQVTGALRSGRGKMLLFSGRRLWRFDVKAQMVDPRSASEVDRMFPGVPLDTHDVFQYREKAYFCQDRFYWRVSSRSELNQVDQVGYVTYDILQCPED

Row | Structure (SMILES) | Ki (MMP-1; Table 8, read-out: MMP-1 Ki) | Ki (MMP-13; Table 8, read-out: MMP-13 Ki) | Ki (MMP-9; Table 8, read-out: MMP-9 Ki) | Ki (MMP-14; Table 8, read-out: MMP-14 Ki) | Ki (MMP-2; Table 8, read-out: MMP-2 Ki) | Ki (MMP-1; [1]) | Ki (MMP-13; [2]) | Ki (MMP-9; [3]) | Ki (MMP-14; [4]) | Ki (MMP-2; [5])
1 | CCCCCCOC1CCN(S(=O)(=O)C2(C(=O)NO)CCOCC2)CC1 [Example A36, 4-(4-hexyloxy-piperidine-1-sulfonyl)-tetrahydro-pyran-4-carboxylic Acid Hydroxyamide] | > 10000 nM | 5.92 nM | 0.95 nM | 1940 nM | 3.51 nM |  |  |  |  | 
2 | CN(C(=O)CCCC1CCN(S(=O)(=O)C2(C(=O)NO)CCOCC2)CC1)C1CCCCC1 [Example A144] |  |  |  |  |  | > 10000 nM | 22.2 nM | 1520 nM | > 10000 nM | 958 nM
3 | O=C(NO)C1(S(=O)(=O)N2CCC(c3ccc(CCC(F)(F)C(F)(F)F)cn3)CC2)CCC1 [Example A126] |  |  |  |  |  | 2750 nM | 0.06 nM | 0.14 nM | 1300 nM | 0.27 nM
4 | CC(C)CCc1cnc(C2CCN(S(=O)(=O)C3(C(=O)NO)CCOCC3)CC2)cn1 [Example A117] |  |  |  |  |  | > 10000 nM | 2.8 nM | 0.96 nM | > 10000 nM | 9.91 nM
5 | COCCOc1ccc(C2CCN(S(=O)(=O)C3(C(=O)NO)CCOCC3)CC2)nc1 [Example A149] |  |  |  |  |  | > 10000 nM | 2.63 nM | 7.04 nM | 6550 nM | 4.42 nM
6 | O=C(NO)C1(S(=O)(=O)N2CCC(c3cnc(OCC(F)(F)C(F)F)cn3)CC2)CCOCC1 [Example A206] |  |  |  |  |  | 4460 nM | 0.9 nM | 0.84 nM | 5750 nM | 0.71 nM
7 | CCC(CC)(C(=O)NO)S(=O)(=O)N1CCC(c2ccc(OCC3CC3)cn2)CC1 [Example A124] |  |  |  |  |  | 3040 nM | 3.11 nM | 0.59 nM | 7290 nM | 3.42 nM
8 | CCOCc1ccc(C2CCN(S(=O)(=O)C3(C(=O)NO)CCOCC3)CC2)nc1 [Example A179] |  |  |  |  |  | > 10000 nM | 1.9 nM | 0.49 nM | 4280 nM | 2.51 nM
9 | N#Cc1ccc(N2CCN(S(=O)(=O)C3(C(=O)NO)CCOCC3)CC2)cc1F [Example A180] |  |  |  |  |  | 8890 nM | 2.1 nM | 96.1 nM | 1300 nM | 2.35 nM
10 | O=C(NO)C1(S(=O)(=O)N2CCC(CCCCC(F)(F)C(F)(F)F)CC2)CCOCC1 [Example A53, 4-[4-(5,5,6,6,6-pentafluoro-hexyl)-piperidine-1-sulfonyl]-tetrahydro-pyran-4-carboxylic Acid Hydroxyamide] | 2880 nM | 2.45 nM | 2.46 nM | 2360 nM | 1.1 nM |  |  |  |  | 
11 | CCCC(=O)c1ccc(C2CCN(S(=O)(=O)C3(C(=O)NO)CCOCC3)CC2)nc1 [Example A159] |  |  |  |  |  | 1840 nM | 1.91 nM | 3.99 nM | 8580 nM | 2.65 nM
12 | CN(C(=O)CCCCN1CCN(S(=O)(=O)C2(C(=O)NO)CCOCC2)CC1)C1CCCCC1 [Example A125] |  |  |  |  |  | > 10000 nM | 106 nM | > 10000 nM | > 10000 nM | > 10000 nM
13 | O=C(CCCCC1CCN(S(=O)(=O)C2(C(=O)NO)CCOCC2)CC1)N1CC2CCCCC2C1 (stereo not shown) [Example A88] |  |  |  |  |  | 2780 nM | 2.01 nM | 50.7 nM | 5360 nM | 38 nM
14 | COCC(=O)N1CCC(C(=O)NO)(S(=O)(=O)N2CCC(c3ccc(CCC(F)(F)C(F)(F)F)cn3)CC2)CC1 [Example A109] |  |  |  |  |  | 8300 nM | 0.42 nM | 26.8 nM | 3720 nM | 0.6 nM
15 | O=C(NO)C1(S(=O)(=O)N2CCN(c3ccc(-c4cccs4)cn3)CC2)CCOCC1 [Example A187] |  |  |  |  |  | 936 nM | 0.56 nM | 2.14 nM | 1240 nM | 0.54 nM
16 | CC(C)(C(=O)NO)S(=O)(=O)N1CCC(c2ccc(CCC(F)(F)C(F)(F)F)cn2)CC1 [Example A122] |  |  |  |  |  | 3100 nM | 0.12 nM | 0.27 nM | 2600 nM | 0.37 nM
17 | O=C(NO)C1(S(=O)(=O)N2CCC(CCCCCOCC(F)(F)F)CC2)CCOCC1 [Example A35, 4-{4-[5-(2,2,2-trifluoro-ethoxy)-pentyl]-piperidine-1-sulfonyl}-tetrahydro-pyran-4-carboxylic Acid Hydroxyamide] | 5290 nM | 0.28 nM | 2.68 nM | 1710 nM | 2.22 nM |  |  |  |  | 
18 | COC(=O)CCCC1CCN(S(=O)(=O)C2(C(=O)NO)CCOCC2)CC1 [Example A148] |  |  |  |  |  | 2710 nM | 5.21 nM | 3.79 nM | 1730 nM | 6.67 nM
19 | CN(C(=O)CCCCC1CCN(S(=O)(=O)C2(C(=O)NO)CCOCC2)CC1)C1CCCCC1 [Example A96] |  |  |  |  |  | 1110 nM | 1.1 nM | 726 nM | > 10000 nM | 240 nM
20 | CC(C)COc1cnc(C2CCN(S(=O)(=O)C3(C(=O)NO)CCOCC3)CC2)cn1 [Example A132] |  |  |  |  |  | 7170 nM | 1.48 nM | 0.45 nM | 5290 nM | 2.29 nM
21 | O=C(NO)C1(S(=O)(=O)N2CCC(c3ccc(/C=C/C(F)(F)C(F)(F)F)cn3)CC2)CCOCC1 [Example A116] |  |  |  |  |  | 1700 nM | 0.08 nM | 0.14 nM | 331 nM | 0.19 nM
22 | O=C(NO)C1(S(=O)(=O)N2CCC(c3ccc(-c4nccs4)cn3)CC2)CCOCC1 [Example A200] |  |  |  |  |  | > 10000 nM | 6.77 nM | 6.77 nM | > 10000 nM | 8.83 nM
23 | Cn1nnc(-c2ccc(C3CCN(S(=O)(=O)C4(C(=O)NO)CCOCC4)CC3)cc2)n1 [Example A202] |  |  |  |  |  | 2300 nM | 2.08 nM | 0.92 nM | 1230 nM | 0.46 nM
24 | O=C(NO)C1(S(=O)(=O)N2CCC(CCOCCCC(F)(F)F)CC2)CCOCC1 [Example A45, 4-{4-[2-(4,4,4-trifluoro-butoxy)-ethyl]-piperidine-1-sulfonyl}-tetrahydro-pyran-4-carboxylic Acid Hydroxyamide] | > 10000 nM | 12.2 nM | 16.8 nM | > 10000 nM | 23.6 nM |  |  |  |  | 
25 | CCCCc1cnc(C2CCN(S(=O)(=O)C3(C(=O)NO)CCOCC3)CC2)nc1 [Example A196] |  |  |  |  |  | > 10000 nM | 21.8 nM | 2.02 nM | > 10000 nM | 70 nM
26 | O=C(NO)C1(S(=O)(=O)N2CCC(c3ccc(CCC4CCCC4)cn3)CC2)CCOCC1 [Example A106] |  |  |  |  |  | 5460 nM | 0.14 nM | 1.05 nM | 1250 nM | 0.54 nM
27 | O=C(NO)C1(S(=O)(=O)N2CCC(CCCCCC(F)(F)C(F)(F)F)CC2)CCOCC1 [Example A54, 4-[4-(6,6,7,7,7-pentafluoro-heptyl)-piperidine-1-sulfonyl]-tetrahydro-pyran-4-carboxylic Acid Hydroxyamide] | > 10000 nM | 0.67 nM | 0.81 nM | 3410 nM | 1.06 nM |  |  |  |  | 
28 | O=C(CCCCC1CCN(S(=O)(=O)C2(C(=O)NO)CCOCC2)CC1)N1CCN(c2ccccc2)CC1 [Example A98] |  |  |  |  |  | 1620 nM | 0.17 nM | 191 nM | > 10000 nM | 38.2 nM
29 | O=C(NO)C1(S(=O)(=O)N2CCC(c3ccc(CCC(F)(F)C(F)(F)F)cn3)CC2)CCNCC1 [Example A170] |  |  |  |  |  | > 10000 nM | 1.55 nM | 4.01 nM | > 10000 nM | 4.21 nM
